{"source": "patent US20230076733A1", "about": "“Combination Therapy” (AGENCY FOR SCIENCE, TECHNOLOGY AND RESEARCH, priority 2020, published 2023)", "type_in_all_cases": "cell-based", "key": {"[1]": {"tested_on": "HPAF-II cells", "experiment": "soft agar colony formation assay, HPAF-II cells", "conditions": "HPAF-II, duplicate wells", "description": "(§1) The IC50 and EC50 values for each combination partner (a) and (b) with the specific cell lines are determined from the response plot. A dose-response assay for each combination partner and the combination at different concentrations based on the IC50 values of each combination partner was performed. Computed EC50-EC95 values were then generated by a software (as disclosed herein) based on the drug concentration and the respective colony growth numbers.\n(§2) 6. Cell lines used and number of cells seeded per well\n(§3) (1) Base Layer—0.6% Agar per 300 μL per well.\n(§4) Microwave the agar for 1-2 min so that it is completely melted. Add 5.4 ml of the melted agar into 21.6 ml of pre-warmed media (All media and agar preparation is made in excess for 2.5 plates). Aliquot 300 μl of the suspension into each well, avoiding the first and last columns of the plates. Fill the first and last columns of wells with 500 μl of sterile water or phosphate buffered saline. Incubate the plates in 37° C. incubator for 45 min-1 hr to allow agar to solidify.\n(§5) (2) Middle Layer— 0.3% Agar plus corresponding number of cells per well\n(§6) Trypsinize the adherent cells and suspend them in 5 ml of media. Determine the number of cells in the suspension and calculate the volume of cell suspension required for seeding. Mix the agar and media together first, excluding the volume of cell suspension. Add the cell suspension last into the mixture. Mix well and aliquot 250 μl into each well containing the base layer. Incubate the plates in a 37° C. incubator for 1-1.5 hrs to allow the agar to solidify.\n(§7) Prepare the required concentration of compounds based on the IC50 values of each drug.\n(§8) (Pre-determine the IC50 values for each drug with the corresponding cell-line using a dose-response assay)\n(§9) Row A& B: Aliquot 250 μl of diluted Drug A per well\n(§10) Row C&D: Aliquot 250 μl of diluted Drug B per well\n(§11) Row E& F: Aliquot 250 μl of diluted Drug A and B mixed at 1:1 ratio for each well\n(§12) Assay Results Analysis Method • 1. Score the colonies after 2 to 3 weeks depending on the colony forming status for different cell line. • 2. Before scoring the colonies, add 35 μl MTT (5 mg/ml) to the wells with cells and incubate at 37° C. for 2-3 hrs depending on the intensity of colour development. • 3. Once the colonies are stained, count the total number of colonies formed using the Oxford Optronix GelCount® instrument. • 4. Average the total number of colonies obtained for each drug dose point and represent it as a fraction over the control. This represents the fraction of colony growth. […] Incorporate the fraction of inhibition and the corresponding dose values into the Chou Talalay Software available online (http://www.combosyn.com/) to obtain the combination index values. • 6. The combination index values will give an indication as to whether the combined drugs are synergistic, antagonistic or additive in the treated cells, as shown in Table 2 below.\nFIG. 4 illustrates of a dose-response assay plate containing HPAF-II cells (Test 1) after testing compounds at different concentrations based on the IC50 values of each compound. HPAF-II is a cell line established from pancreatic ductal adenocarcinoma (pancreatic cancer)."}, "[2]": {"tested_on": "MCAS cells", "experiment": "soft agar colony formation assay, MCAS cells", "conditions": "for Colony count: MCAS, duplicate wells", "description": "as §1, §2, §3, §4, §5, §6, §7, §8, §9, §10, §11\nas §12, with “6.” for “6. The combination index values will give an indication as to whether the combined drugs are synergistic, antagonistic or additive in the treated cells, as shown in Table 2 below.”\nMCAS is a cell line established from ovarian mucinous cystadenocarcinoma (ovarian cancer)."}, "[3]": {"tested_on": "EGI-1 cells", "experiment": "soft agar colony formation assay, EGI-1 cells", "conditions": "for Colony count: duplicate wells", "description": "as §1, §2, §3, §4, §5, §6, §7, §8, §9, §10, §11, §12\nFIG. 2 illustrates a dose-response assay plate containing EGI-1 cells (Test 1) after testing compounds at different concentrations based on the IC50 values of each compound. EGI-1 is a cell line established from cholangiocarcinoma (bile duct adenocarcinoma)."}, "[4]": {"tested_on": "TFK-1 cells", "experiment": "soft agar colony formation assay, TFK-1 cells", "conditions": "for Colony count: duplicate wells", "description": "as §1, §2, §3, §4, §5, §6, §7, §8, §9, §10, §11, §12\nFIG. 10 illustrates a dose-response assay plate containing TFK-1 cells (Test 1) after testing compounds at different concentrations based on the IC50 values of each compound. TFK-1 is a cell line established from cholangiocarcinoma (bile duct adenocarcinoma)."}}, "note": "Where “and” joins values, the source holds several entries; their conditions need not be identical. Equal values may be shown once.", "data": [{"smiles": "O=C(c1cc(Cc2n[nH]c(=O)c3ccccc23)ccc1F)N1CCN(C(=O)C2CC2)CC1", "note": "[Olaparib, reference compound]", "values": [{"measurement": "Colony count", "setting": "[1]; Test 1, 0.25x IC50: dose Olaparib 9.7975, Ex 1 0,001929, combination both 1:1", "result": "522 and 507"}, {"measurement": "Colony count", "setting": "[1]; Test 1, 0.5x IC50: dose Olaparib 19.535, Ex 1 0.003883, combination both 1:1", "result": "498 and 471"}, {"measurement": "Colony count", "setting": "[1]; Test 1, 1x IC50: dose Olaparib 39.19, Ex 1 0,007577, combination both 1:1", "result": "381 and 427"}, {"measurement": "Colony count", "setting": "[1]; Test 1, 2x IC50: dose Olaparib 78.38, Ex 1 0.015354, combination both 1:1", "result": "313 and 244"}, {"measurement": "Colony count", "setting": "[1]; Test 1, 4x IC50: dose Olaparib 156.76, Ex 1 0.030707, combination both 1:1", "result": "237 and 206"}, {"measurement": "Colony count", "setting": "[1]; Test 2, 0.25x IC50: dose Olaparib 9.7975, Ex 1 0.001929, combination both 1:1", "result": "550 and 426"}, {"measurement": "Colony count", "setting": "[1]; Test 2, 0.5x IC50: dose Olaparib 13.595, Ex 1 0.003838, combination both 1:1", "result": "443 and 375"}, {"measurement": "Colony count", "setting": "[1]; Test 2, 1x IC50: dose Olaparib 39.19, Ex 1 0.007677, combination both 1:1", "result": "278 and 248"}, {"measurement": "Colony count", "setting": "[1]; Test 2, 2x IC50: dose Olaparib 78.38, Ex 1 0.015354, combination both 1:1", "result": "239 and 172"}, {"measurement": "Colony count", "setting": "[1]; Test 2, 4x IC50: dose Olaparib 156.76, Ex 1 0.030707, combination both 1:1", "result": "142 and 92"}, {"measurement": "IC50", "setting": "[2]; MCAS cells, pre-determined by dose-response assay", "result": 3.98, "unit": "µM"}, {"measurement": "Colony count", "setting": "[2]; Test 1, 0.25x IC50: dose Olaparib 0.99475, Ex 1 0.07175, combination both 1:1", "result": "429 and 425"}, {"measurement": "Colony count", "setting": "[2]; Test 1, 0.5x IC50: dose Olaparib 1.9895, Ex 1 0.1435, combination both 1:1", "result": "363 and 402"}, {"measurement": "Colony count", "setting": "[2]; Test 1, 1x IC50: dose Olaparib 3.979, Ex 1 0.287, combination both 1:1", "result": "273 and 227"}, {"measurement": "Colony count", "setting": "[2]; Test 1, 2x IC50: dose Olaparib 7.958, Ex 1 0.574, combination both 1:1", "result": "188 and 141"}, {"measurement": "Colony count", "setting": "[2]; Test 1, 4x IC50: dose Olaparib 15.918, Ex 1 1.148, combination both 1:1", "result": "112 and 97"}, {"measurement": "Colony count", "setting": "[2]; Test 2, 0.25x IC50: dose Olaparib 0.99475, Ex 1 0.07175, combination both 1:1", "result": "951 and 929"}, {"measurement": "Colony count", "setting": "[2]; Test 2, 0.5x IC50: dose Olaparib 1.9895, Ex 1 0.1435, combination both 1:1", "result": "741 and 668"}, {"measurement": "Colony count", "setting": "[2]; Test 2, 1x IC50: dose Olaparib 3.979, Ex 1 0.287, combination both 1:1", "result": "393 and 359"}, {"measurement": "Colony count", "setting": "[2]; Test 2, 2x IC50: dose Olaparib 7.958, Ex 1 0.574, combination both 1:1", "result": 155}, {"measurement": "Colony count", "setting": "[2]; Test 2, 4x IC50: dose Olaparib 15.916, Ex 1 1.148, combination both 1:1", "result": "85 and 82"}, {"measurement": "Colony count", "setting": "[3]; EGI-1, Test 1, 0.25x IC50: dose Olaparib 2.16362, Ex 1 0.00687, combination both 1:1", "result": "1658 and 1605"}, {"measurement": "Colony count", "setting": "[3]; EGI-1, Test 1, 0.5x IC50: dose Olaparib 4.32725, Ex 1 0.01375, combination both 1:1", "result": "1362 and 1300"}, {"measurement": "Colony count", "setting": "[3]; EGI-1, Test 1, 1x IC50: dose Olaparib 8.6545, Ex 1 0.0275, combination both 1:1", "result": "935 and 908"}, {"measurement": "Colony count", "setting": "[3]; EGI-1, Test 1, 2x IC50: dose Olaparib 17.309, Ex 1 0.055, combination both 1:1", "result": "454 and 489"}, {"measurement": "Colony count", "setting": "[3]; EGI-1, Test 1, 4x IC50: dose Olaparib 34.618, Ex 1 0.11, combination both 1:1", "result": "209 and 197"}, {"measurement": "Colony count", "setting": "[3]; EGI-1, Test 2, 0.25x IC50: dose Olaparib 2.16362, Ex 1 0.00687, combination both 1:1", "result": "1591 and 1717"}, {"measurement": "Colony count", "setting": "[3]; EGI-1, Test 2, 0.5x IC50: dose Olaparib 4.32725, Ex 1 0.01375, combination both 1:1", "result": "1403 and 1442"}, {"measurement": "Colony count", "setting": "[3]; EGI-1, Test 2, 1x IC50: dose Olaparib 8.6545, Ex 1 0.0275, combination both 1:1", "result": "856 and 1052"}, {"measurement": "Colony count", "setting": "[3]; EGI-1, Test 2, 2x IC50: dose Olaparib 17.309, Ex 1 0.055, combination both 1:1", "result": "445 and 482"}, {"measurement": "Colony count", "setting": "[3]; EGI-1, Test 2, 4x IC50: dose Olaparib 34.618, Ex 1 0.11, combination both 1:1", "result": "144 and 198"}, {"measurement": "IC50", "setting": "[3]; Homo sapiens, EGI-1 cells, pre-determined by dose-response assay", "result": 8.65, "unit": "µM"}, {"measurement": "Colony count", "setting": "[4]; TFK-1, Test 1, 0.25x IC50: dose Olaparib 4.5, Ex 1 3, combination both 1:1", "result": "759 and 668"}, {"measurement": "Colony count", "setting": "[4]; TFK-1, Test 1, 0.5x IC50: dose Olaparib 9, Ex 1 6, combination both 1:1", "result": "674 and 531"}, {"measurement": "Colony count", "setting": "[4]; TFK-1, Test 1, 1x IC50: dose Olaparib 18, combination both 1:1", "result": "381 and 437"}, {"measurement": "Colony count", "setting": "[4]; TFK-1, Test 1, 2x IC50: dose Olaparib 36, Ex 1 24, combination both 1:1", "result": "270 and 204"}, {"measurement": "Colony count", "setting": "[4]; TFK-1, Test 1, 4x IC50: dose Olaparib 72, Ex 1 48, combination both 1:1", "result": "96 and 75"}, {"measurement": "Colony count", "setting": "[4]; TFK-1, Test 2, 0.25x IC50: dose Olaparib 4.5, Ex 1 3, combination both 1:1", "result": "737 and 676"}, {"measurement": "Colony count", "setting": "[4]; TFK-1, Test 2, 0.5x IC50: dose Olaparib 9, Ex 1 6, combination both 1:1", "result": "698 and 621"}, {"measurement": "Colony count", "setting": "[4]; TFK-1, Test 2, 1x IC50: dose Olaparib 18, combination both 1:1", "result": "447 and 437"}, {"measurement": "Colony count", "setting": "[4]; TFK-1, Test 2, 2x IC50: dose Olaparib 36, Ex 1 24, combination both 1:1", "result": "267 and 213"}, {"measurement": "Colony count", "setting": "[4]; TFK-1, Test 2, 4x IC50: dose Olaparib 72, Ex 1 48, combination both 1:1", "result": "148 and 75"}, {"measurement": "IC50", "setting": "[4]; TFK-1 cells, pre-determined by dose-response assay", "result": 18, "unit": "µM"}]}]}
